Assay results: ChEMBL document CHEMBL1138817, “Synthesis and cytotoxic activity of 3-O-acyl/3-hydrazine /2-bromo/20,29-dibromo betulinic acid derivatives” (2004)
In brackets after ≈: the same amount, converted by molar mass.

Tests used:
Format in all cases: functional
Jurkat = assay: Cytotoxic activity against human JurkatE6.1 cell line was measured after 72 h using MTT assay; settings: Homo sapiens, Jurkat, 72 h; read-out: ED50 (the source's name)
A549 = assay: Cytotoxic activity against human A549 cell line was measured after 72 hr using MTT assay; settings: A549, 72 h, read-out: ED50 (the source's name)
L132 = assay: Cytotoxic activity against human L132 cell line was measured after 72 hr using MTT assay; settings: L132, 72 h, read-out: ED50 (the source's name)
PA-1 = assay: Cytotoxic activity against human PA-1 cell line was measured after 72 hr using MTT assay; settings: Homo sapiens, PA-1, 72 h; read-out: ED50 (the source's name)
DU-145 = assay: Cytotoxic activity against human DU145 cell line was measured after 72 hr using MTT assay; settings: Homo sapiens, DU-145, 72 h; read-out: ED50 (the source's name)
MOLT-4 = assay: Cytotoxic activity against human MOLT-4 cell line was measured after 72 hr using MTT assay; settings: Homo sapiens, MOLT-4, 72 h; read-out: ED50 (the source's name)
CCRF-CEM = assay: Cytotoxic activity against human CEM.CM3 cell line was measured after 72 hr using MTT assay; settings: Homo sapiens, CCRF-CEM, 72 h; read-out: ED50 (the source's name)
BRISTOL8 = assay: Cytotoxic activity against human BRISTOL8 cell line was measured after 72 hr using MTT assay; settings: Homo sapiens, BRISTOL8, 72 h; read-out: ED50 (the source's name)
U-937 = assay: Cytotoxic activity against human U937 cell line was measured after 72 hr using MTT assay; settings: Homo sapiens, U-937, 72 h; read-out: ED50 (the source's name)

| SMILES | EC50 (Jurkat) | EC50 (A549) | EC50 (L132) | EC50 (PA-1) | EC50 (DU-145) | EC50 (MOLT-4) | EC50 (CCRF-CEM) | EC50 (BRISTOL8) | EC50 (U-937) |
| --- | --- | --- | --- | --- | --- | --- | --- | --- | --- |
| CC(C)[C@@H]1CC[C@]2(C(=O)O)CC[C@]3(C)C(CCC4[C@@]5(C)CC/C(=N\O)C(C)(C)C5CC[C@]43C)C12 (some centres undefined) | 1.8 µg/mL (≈ 3.82 µM) | > 1.8 µg/mL | 1.5 µg/mL (≈ 3.18 µM) | 0.7 µg/mL (≈ 1.48 µM) | 1.1 µg/mL (≈ 2.33 µM) | 2.1 µg/mL (≈ 4.45 µM) | 2.6 µg/mL (≈ 5.51 µM) | 1.6 µg/mL (≈ 3.39 µM) | 2.4 µg/mL (≈ 5.09 µM) |
| COC(=O)CCOC(=O)[C@]12CC[C@@H](C(C)C)C1C1CCC3[C@@]4(C)CC(Br)C(=O)C(C)(C)C4CC[C@@]3(C)[C@]1(C)CC2 (some centres undefined) | 1.9 µg/mL (≈ 3.06 µM) | > 10 µg/mL | > 10 µg/mL | 4.8 µg/mL (≈ 7.72 µM) | 6.6 µg/mL (≈ 10.6 µM) | 1.2 µg/mL (≈ 1.93 µM) | 1.9 µg/mL (≈ 3.06 µM) | 2.3 µg/mL (≈ 3.7 µM) | 1.2 µg/mL (≈ 1.93 µM) |
| C=C(C)[C@@H]1CC[C@]2(C(=O)O)CC[C@]3(C)[C@H](CC[C@@H]4[C@@]5(C)CCC(=O)C(C)(C)[C@@H]5CC[C@]43C)[C@@H]12 [BETUNOLIC ACID] | 0.4 µg/mL (≈ 0.88 µM) | > 10 µg/mL | > 10 µg/mL | 1.2 µg/mL (≈ 2.64 µM) | 3.1 µg/mL (≈ 6.82 µM) | 1.2 µg/mL (≈ 2.64 µM) | 4.4 µg/mL (≈ 9.68 µM) | 2.6 µg/mL (≈ 5.72 µM) | 2.8 µg/mL (≈ 6.16 µM) |
| CC(C)[C@@H]1CC[C@]2(C(=O)O)CC[C@]3(C)C(CCC4[C@@]5(C)CC/C(=N\Nc6ccccc6)C(C)(C)C5CC[C@]43C)C12 (some centres undefined) | 6.3 µg/mL (≈ 11.5 µM) | > 10 µg/mL | 7.4 µg/mL (≈ 13.5 µM) | 0.4 µg/mL (≈ 0.731 µM) | 0.6 µg/mL (≈ 1.1 µM) | 1.4 µg/mL (≈ 2.56 µM) | 2.9 µg/mL (≈ 5.3 µM) | 3.7 µg/mL (≈ 6.77 µM) | 2.2 µg/mL (≈ 4.02 µM) |
| CC(=O)O[C@H]1CC[C@@]2(C)C(CC[C@]3(C)C2CCC2C4[C@H](C(C)C)CC[C@]4(C(=O)O)CC[C@]23C)C1(C)C (some centres undefined) | 1.6 µg/mL (≈ 3.2 µM) | 2.3 µg/mL (≈ 4.59 µM) | 2.9 µg/mL (≈ 5.79 µM) | 0.8 µg/mL (≈ 1.6 µM) | 0.9 µg/mL (≈ 1.8 µM) | 1.1 µg/mL (≈ 2.2 µM) | 1 µg/mL (≈ 2 µM) | 3.4 µg/mL (≈ 6.79 µM) | 1.8 µg/mL (≈ 3.59 µM) |
| C=C(C)[C@@H]1CC[C@]2(C(=O)OCC(=O)OC)CC[C@]3(C)C(CCC4[C@@]5(C)CCC(=N)C(C)(C)C5CC[C@]43C)C12 (some centres undefined) | 0.5 µg/mL (≈ 0.951 µM) | > 10 µg/mL | > 10 µg/mL | 6.5 µg/mL (≈ 12.4 µM) | 5.5 µg/mL (≈ 10.5 µM) | 1.7 µg/mL (≈ 3.23 µM) | 1.4 µg/mL (≈ 2.66 µM) | 1.4 µg/mL (≈ 2.66 µM) | 1.7 µg/mL (≈ 3.23 µM) |
| CC(C)[C@@H]1CC[C@]2(C(=O)O)CC[C@]3(C)C(CCC4[C@@]5(C)CC[C@H](O)C(C)(C)C5CC[C@]43C)C12 (some centres undefined) [DIHYDROBETULINIC ACID] | 4.9 µg/mL (≈ 10.7 µM) | 2.2 µg/mL (≈ 4.8 µM) | 2.4 µg/mL (≈ 5.23 µM) | 0.7 µg/mL (≈ 1.53 µM) | 0.7 µg/mL (≈ 1.53 µM) | 0.6 µg/mL (≈ 1.31 µM) | 1.3 µg/mL (≈ 2.83 µM) | 4.4 µg/mL (≈ 9.59 µM) | 0.9 µg/mL (≈ 1.96 µM) |
| C=C(C)[C@@H]1CC[C@]2(C(=O)O)CC[C@]3(C)[C@H](CC[C@@H]4[C@@]5(C)CC[C@H](O)C(C)(C)[C@@H]5CC[C@]43C)[C@@H]12 [BETULINIC ACID] | 0.65 µg/mL (≈ 1.42 µM) | > 10 µg/mL | 1.3 µg/mL (≈ 2.85 µM) | > 10 µg/mL | 1.13 µg/mL (≈ 2.47 µM) | 1.23 µg/mL (≈ 2.69 µM) | 0.98 µg/mL (≈ 2.15 µM) | 0.84 µg/mL (≈ 1.84 µM) | 0.69 µg/mL (≈ 1.51 µM) |
| C=C(C)[C@@H]1CC[C@]2(C(=O)O)CC[C@]3(C)C(CCC4[C@@]5(C)CC/C(=N\Nc6ccccc6)C(C)(C)C5CC[C@]43C)C12 (some centres undefined) | 2.6 µg/mL (≈ 4.77 µM) | > 10 µg/mL | 4.3 µg/mL (≈ 7.89 µM) | 5.3 µg/mL (≈ 9.73 µM) | 2.4 µg/mL (≈ 4.41 µM) | 3.4 µg/mL (≈ 6.24 µM) | 3.1 µg/mL (≈ 5.69 µM) | 3.4 µg/mL (≈ 6.24 µM) | 2.4 µg/mL (≈ 4.41 µM) |
| C=C(C)[C@@H]1CC[C@]2(C(=O)O)CC[C@]3(C)C(CCC4[C@@]5(C)CC[C@H](OC(C)=O)C(C)(C)C5CC[C@]43C)C12 (some centres undefined) | 1.8 µg/mL (≈ 3.61 µM) | > 10 µg/mL | > 10 µg/mL | 4.1 µg/mL (≈ 8.22 µM) | 2.6 µg/mL (≈ 5.21 µM) | 3.1 µg/mL (≈ 6.22 µM) | – | 4.8 µg/mL (≈ 9.62 µM) | 1.6 µg/mL (≈ 3.21 µM) |
